Laboratory results reported in US20250154686A1, “COMPOUND LIBRARY” (CHUGAI SEIYAKU KABUSHIKI KAISHA, priority 2021, published 2025).

Molecular target: T1, Human Bcl-2 protein (Homo sapiens, UniProt P10415)
T1 construct: purchased Novus Biologicals
Experiment: Evaluation of binding of compound to Bcl-2 by surface plasmon resonance (SPR), Example 7
Details: for equilibrium dissociation constant compared with compound B2Q045-01: SPR, comparison with B2Q045-01; for binding to Bcl-2 confirmed by SPR: compounds identified by AS-MS (Example 5), individually synthesized
Experimental: A surface plasmon resonance method was used in order to analyze the binding affinity of the compounds synthesized in Example 1 and Example 6, which are shown in Table AK-01, for Bcl-2. The apparatus used was Biacore T200 (GE Healthcare Japan Corp.), and the running buffer used was HBS (10 mM HEPES-NaOH and 150 mM NaCl, pH 7.4) supplemented with 1 mM DTT, 3 mM EDTA, 0.01% Tween 20 and 4% DMSO. Human Bcl-2 protein (Novus Biologicals) was biotinylated using EZ-Link Sulfo-NHS-LC-LC-biotin (Thermo Fisher scientific Inc.) and immobilized on the surface of Sensor Chip SA (GE Healthcare Japan Corp.). Then, compound solutions having a plurality of concentrations and the running buffer (blank) were added to the Bcl-2-immobilized surface to obtain the binding response of the compounds. Measurement was performed at 15° C.′.
The obtained sensorgrams were treated with Biacore T200 Evaluation Software, and the equilibrium dissociation constant KD of each compound for Bel-2 was determined as shown in the following Table AK-02 and Table AK-03.

T1 sequence (P10415 whole entry): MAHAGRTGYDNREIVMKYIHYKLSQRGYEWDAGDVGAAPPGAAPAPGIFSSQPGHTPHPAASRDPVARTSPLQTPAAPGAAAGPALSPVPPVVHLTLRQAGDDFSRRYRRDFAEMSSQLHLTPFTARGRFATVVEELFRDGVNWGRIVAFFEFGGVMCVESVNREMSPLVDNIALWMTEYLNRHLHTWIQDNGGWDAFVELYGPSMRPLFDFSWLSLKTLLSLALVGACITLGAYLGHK

Row | SMILES | equilibrium dissociation constant compared with compound B2Q045-01 | binding to Bcl-2 confirmed by SPR
1 | CCOc1cccc(-c2ccc(CN3CCN(c4ccc(C(=O)NS(=O)(=O)c5ccc(NCCSc6ccccc6)c([N+](=O)[O-])c5)cc4)CC3)cc2C)c1 [Compound B2Q047-01, 4-[4-[[4-(3-ethoxyphenyl)-3-methylphenyl]methyl]piperazin-1-yl]-N-[3-nitro-4-(2-phenylsulfanylethylamino)phenyl]sulfonylbenzamide] | smaller equilibrium dissociation constant Kp | confirmed to bind by SPR
2 | CCOc1cncc(-c2ccc(CN3CCN(c4ccc(C(=O)NS(=O)(=O)c5ccc(NCCSc6ccccc6)c([N+](=O)[O-])c5)cc4)CC3)cc2C)c1 [Compound B2Q048-01, 4-[4-[[4-(5-ethoxypyridin-3-yl)-3-methylphenyl]methyl]piperazin-1-yl]-N-[3-nitro-4-(2-phenylsulfanylethylamino)phenyl]sulfonylbenzamide] | smaller equilibrium dissociation constant Kp | confirmed to bind by SPR
3 | CCOc1cncc(-c2ccc(CN3CCN(c4ccc(C(=O)NS(=O)(=O)c5ccc(NCCSc6ccccc6)c([N+](=O)[O-])c5)cc4)CC3)c3ccccc23)c1 [Compound B2Q066-01, 4-[4-[[4-(5-ethoxypyridin-3-yl)naphthalen-1-yl]methyl]piperazin-1-yl]-N-[3-nitro-4-(2-phenylsulfanylethylamino)phenyl]sulfonylbenzamide] | smaller equilibrium dissociation constant Kp | –
